What all share (assay type): biochemical
Test [1] deals with T1, β-secretase(BACE) (Homo sapiens, UniProt P56817).
T1 construct: purchased Panvera
The experiment in a line: BACE Assay-1 (MCA-substrate, IC50). The conditions noted are these: procedure of Example 158; read-out: IC50 μM (158). The method, boiled down:
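Human BACE (work solution 10 μg/mL) with MCA-peptide substrate (stock 2.0 mg/mL) in 0.05 M citrate buffer, pH 5.0, with PEG8000. Fluorescence read at T0 and T60; compounds tested at multiple concentrations and IC50 calculated from these readings.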

The target in test [2] is T1, β-secretase(BACE). The experiment in a line: BACE Assay-2 (FS1 substrate, IC50 and Ki). The conditions noted are these: procedure of Example 159, FS1 substrate; for Ki: read-out: Ki μM (159).
Test [3] concerns the target T1, β-secretase(BACE). The experiment in a line: BACE % Inhibition Assay ((Aedens)-[…]-(Dabcyl K-amide) substrate). The conditions noted are these: % error ±10%; for inhibition at 3 µM / inhibition at 10 µM: read-out: % Inhibition; for inhibition at 10 µM: 10 μM test compound; for inhibition at 0.3 µM: 0.3 μM test compound; for inhibition at 1 µM: 1 μM test compound. Here is the method: The substrate stock solution was prepared in DMSO as a 10 mg/mL solution. The substrate working solution was prepared by diluting the 10 mg/mL stock solution with substrate assay buffer to a final concentration of 300 μg/mL. The β-secretase (BACE) working solution was prepared by diluting a 0.83 mg/mL BACE stock solution with enzyme assay buffer to a final concentration of 4 μg/mL.
Test compounds were dissolved in DMSO to 10 mM.
The screening procedure for this assay was as follows: 15 μL of BACE working solution was pipetted into each well of a 96-well plate. To each well was then pipetted 2 μL of test compound at the selected concentration. Test compound and BACE were then mixed with a pipettor and incubated for 20 min at room temperature. To each well was then added 10 μL of the substrate working solution. The plates were then incubated for 1 hour at room temperature.
The procedure for the blank was as follows. 15 μL of assay buffer was pipetted into each well to be used as a blank control. To each well was then added 2 μL of vehicle and 10 μL of substrate working solution. The plates were then incubated for 1 hour at room temperature.
The procedure for the positive control was as follows: 15 μl of BACE working solution was pipetted into each well to be used as a positive control. To each well was then pipetted 2 μL of vehicle. Vehicle and BACE were then mixed with a pipettor and incubated for 20 min at room temperature. To each well was then added 10 μL of the substrate working solution. The plates were then incubated for 1 hour at room temperature.
For test compounds, % inhibition was determined at each concentration as follows: […]

Where “and” joins values, the source holds several entries; their conditions need not be identical. Identical values can stand only once. Bounds are passed on as bounds.

The IC50 is the midpoint of a concentration-inhibition curve. The term Ki denotes a dissociation constant, usually derived from enzyme kinetics or from competition with a known ligand. By inhibition is commonly meant the relative decrease from the control value, in per cent. One may read the % Inhibition as the change of the read-out against control, counted positive when it falls.

T1 sequence (P56817 46-501): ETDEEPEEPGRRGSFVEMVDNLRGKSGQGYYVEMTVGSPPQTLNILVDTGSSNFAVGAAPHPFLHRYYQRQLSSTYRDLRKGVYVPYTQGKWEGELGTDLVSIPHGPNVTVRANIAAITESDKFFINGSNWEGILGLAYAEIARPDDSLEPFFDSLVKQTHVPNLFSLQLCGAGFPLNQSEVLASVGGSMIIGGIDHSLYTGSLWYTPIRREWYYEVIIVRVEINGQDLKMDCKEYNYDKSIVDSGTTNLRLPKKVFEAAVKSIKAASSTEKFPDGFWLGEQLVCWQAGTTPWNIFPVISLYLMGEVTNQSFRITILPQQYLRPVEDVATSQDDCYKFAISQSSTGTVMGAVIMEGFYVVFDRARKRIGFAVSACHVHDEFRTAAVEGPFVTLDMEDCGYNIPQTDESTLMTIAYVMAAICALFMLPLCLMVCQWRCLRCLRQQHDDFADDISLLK

Consider `CN(CCCN1Cc2cc(C(=O)c3ccccc3)ccc2N=C1N)C1CCCCC1` [Compound 15, {2-Amino-3-[3-(cyclohexyl-methyl-amino)-propyl]-3,4-dihydro-quinazolin-6-yl}-phenyl-methanone], for which the IC50 at β-secretase(BACE) [1] was determined as 2.3 µM. Besides, the Ki on β-secretase(BACE) [2] stood at 4 µM. Besides, at β-secretase(BACE) [3] (3 μM test compound), the inhibition at 3 µM turned out to be 42%. For the same compound, the inhibition at 10 µM on β-secretase(BACE) [3] is 69%.
In the case of `NC1=Nc2ccc(Oc3ccccc3)cc2CN1CCCCC(=O)N(C1CCCCC1)C1CCCCC1` [Compound 19], at β-secretase(BACE) [1], the IC50 worked out at 0.18 µM. Moreover, on β-secretase(BACE) [2], the midpoint of inhibition, the IC50, lay at 1.6 µM and the Ki was determined as 0.38 µM. Also, the inhibition at 3 µM on β-secretase(BACE) [3] (3 μM test compound) stood at 67%. Also, at β-secretase(BACE) [3], the inhibition at 10 µM stood at 92%.
For `CN(C(=O)CCN1Cc2cc(Oc3ccccc3)ccc2N=C1N)C1CCCCC1` [Compound 20, 3-(2-Amino-6-phenoxy-4H-quinazolin-3-yl)-N-cyclohexyl-N-methyl-propionamide] the same measures were 0.48 µM, 2.1 µM, 0.34 µM, 68% and 83%.
For `CN(CCN1Cc2cc(C(=O)c3ccccc3)ccc2N=C1N)C(=O)C1CCCCC1` [Compound 23] the same measures were 4.9 µM, 10 µM, 1.1 µM, 47% and 76%.
For `CN(C(=O)CCCCN1Cc2cc(C(=O)c3ccccc3)ccc2N=C1N)C1CCCCC1` [Compound 27] the same measures were 1.2 µM, 3 µM, 0.66 µM, 63% and 81%.
With `NC1=Nc2ccc(C(=O)c3ccccc3)cc2CN1CCCCNC(=O)C1CCCCC1` [Compound 30], the values for the IC50 on β-secretase(BACE) [1] and on β-secretase(BACE) [2] were 11 µM and 20 µM, respectively. Moreover, the Ki at β-secretase(BACE) [2] came out at 2.3 µM. Further, the inhibition at 3 µM at β-secretase(BACE) [3] (3 μM test compound) is 32%. In addition, the inhibition at 10 µM on β-secretase(BACE) [3] turned out to be 48%.
For `NC1=Nc2ccc(C(=O)c3ccccc3)cc2CN1CCCCC(=O)N(C1CCCCC1)C1CCCCC1` [Compound 46] the same measures were 0.6 µM, 2.1 µM, 0.6 µM, 66% and 82%.
The like results for `CCCN1Cc2cc(Oc3cccc(N(C(=O)OCc4ccccc4)C4CCCCC4)c3)ccc2N=C1N` [Compound 49] were, in that order, 0.8 µM, 2.8 µM, 0.84 µM, 56% and 90%.
For `CN(CCc1ccccc1)C(=O)CCCCN1Cc2cc(C(=O)c3ccccc3)ccc2N=C1N` [Compound 50] the same measures were 1 µM, 11 µM, 0.53 µM, under 30% and 34%.
On to `CN(Cc1cccc2ccccc12)C(=O)CCCCN1Cc2cc(C(=O)c3ccccc3)ccc2N=C1N` [Compound 51], for which the IC50 is 2.2 µM at β-secretase(BACE) [1] and 13 µM against β-secretase(BACE) [2]. On β-secretase(BACE) [2], the Ki is 1.2 µM. In addition, the inhibition at 3 µM at β-secretase(BACE) [3] (3 μM test compound) is under 30%. In addition, the inhibition at 10 µM at β-secretase(BACE) [3] is 56%.
The like results for `CCCN1Cc2cc(Oc3cccc(NC4CCCCC4)c3)ccc2N=C1N` [Compound 53] were, in that order, 1 µM, 6.8 µM, 0.82 µM, 34% and 82%.
The like results for `CCCN1Cc2cc(Oc3cccc(NCC4CCCCC4)c3)ccc2N=C1N` [Compound 55] were, in that order, 0.28 µM, 2.4 µM, 0.79 µM, 62% and 95%.
Take `CCCN1Cc2cc(Oc3cccc(NS(=O)(=O)c4ccccc4)c3)ccc2N=C1N` [Compound 61]: the IC50 on β-secretase(BACE) [1] was determined as 0.2 µM. At β-secretase(BACE) [2], it took 0.44 µM to reach half-maximal inhibition (IC50) and the Ki is 0.23 µM. Moreover, the inhibition at 3 µM at β-secretase(BACE) [3] (3 μM test compound) is 75%. The inhibition at 10 µM on β-secretase(BACE) [3] amounted to 87%.
Consider `CCCN1Cc2cc(Oc3cccc(NC(=O)OCc4ccccc4)c3)ccc2N=C1N` [Compound 67], for which the IC50 on β-secretase(BACE) [1] turned out to be 0.68 µM; against β-secretase(BACE) [2], 3.9 µM. Also, at β-secretase(BACE) [2], the Ki is 0.81 µM. The inhibition at 3 µM on β-secretase(BACE) [3] (3 μM test compound) worked out at 44%. The inhibition at 10 µM at β-secretase(BACE) [3] stood at 71%.
`CC(C)(C)OC(=O)NCCN1Cc2cc(Oc3ccccc3)ccc2N=C1N` [Compound 80]: at β-secretase(BACE) [1], the IC50 turned out to be 0.11 µM. In addition, on β-secretase(BACE) [2], the IC50 came to 0.94 µM and the Ki came to 0.12 µM. Further, the inhibition at 3 µM at β-secretase(BACE) [3] (3 μM test compound) is 61%. Besides, the inhibition at 10 µM at β-secretase(BACE) [3] was determined as 80%.
The like results for `CN(C(=O)CCC(CCC(=O)N(C)C1CCCCC1)N1Cc2cc(Oc3ccccc3)ccc2N=C1N)C1CCCCC1` [Compound 84, 4-(2-Amino-6-phenoxy-4H-quinazolin-3-yl)-heptanedioic acid bis-(cyclohexyl-methyl-amide)] were, in that order, 0.47 µM, 3.1 µM, 0.76 µM, 38% and 63%.
As to `NC1=Nc2ccc(Oc3ccccc3)cc2CN1CCCNC(=O)C1CCCCC1` [Compound 108], the IC50 on β-secretase(BACE) [1] came out at 0.32 µM. For the same compound, at β-secretase(BACE) [2], the IC50 is 0.954 µM and the Ki stood at 0.076 µM. In addition, the inhibition at 3 µM on β-secretase(BACE) [3] (3 μM test compound) came to 73%. Also, the inhibition at 10 µM at β-secretase(BACE) [3] is 90%.
As to `NC1=Nc2ccc(Oc3ccccc3)cc2CN1CCNC(=O)C1CCCCC1` [Compound 111, Cyclohexanecarboxylic acid [2-(2-amino-6-phenoxy-4H-quinazolin-3-yl)-ethyl]-amide], the IC50 at β-secretase(BACE) [1] turned out to be 0.1 µM. Besides, the Ki on β-secretase(BACE) [2] is 0.082 µM and 0.067 µM. Besides, on β-secretase(BACE) [3], the inhibition at 0.3 µM turned out to be 63%, the inhibition at 1 µM came out at 96% and the inhibition at 10 µM amounted to 94%. Also, at β-secretase(BACE) [3] (3 μM test compound, 3 µM), the “% Inhibition” value is 84% and 115%.
`NC1=Nc2ccc(Oc3ccccc3)cc2CN1CCNC(=O)C1CCCC1` [Compound 112]: on β-secretase(BACE) [1], the IC50 amounted to 0.12 µM. Besides, the Ki on β-secretase(BACE) [2] came out at 0.59 µM. Besides, the inhibition at 3 µM on β-secretase(BACE) [3] (3 μM test compound) came to 88%. Also, the inhibition at 10 µM on β-secretase(BACE) [3] worked out at 92%.
Turning to `CCCC(CNC(=O)OC(C)(C)C)N1Cc2cc(Oc3ccccc3)ccc2N=C1N` (stereo not drawn) [Compound 318], at β-secretase(BACE) [1], the IC50 came to 0.25 µM. Also, at β-secretase(BACE) [2], the Ki is 0.19 µM. On β-secretase(BACE) [3], the inhibition at 0.3 µM came to 32% and the inhibition at 1 µM came to 70%. For the same compound, the inhibition at 3 µM on β-secretase(BACE) [3] (3 μM test compound) was determined as 103%.
For `NC1=Nc2ccc(Oc3ccccc3)cc2CN1C(CNC(=O)c1ccccc1)C1CCCCC1` (stereo not drawn) [Compound 319], on β-secretase(BACE) [1], the IC50 is 0.053 µM. Also, the Ki at β-secretase(BACE) [2] was 0.074 µM. In addition, on β-secretase(BACE) [3], the inhibition at 0.3 µM was found to be 61% and the inhibition at 1 µM amounted to 95%. Moreover, the inhibition at 3 µM on β-secretase(BACE) [3] (3 μM test compound) turned out to be 120%.
In the case of `NC1=Nc2ccc(Oc3ccccc3)cc2CN1C(CNC(=O)C1CCCCC1)c1ccccc1` (stereo not drawn) [Compound 342], at β-secretase(BACE) [1], the IC50 worked out at 0.082 µM. Moreover, the inhibition constant Ki on β-secretase(BACE) [2] was 0.19 µM. Also, on β-secretase(BACE) [3], the inhibition at 0.3 µM is 50% and the inhibition at 1 µM turned out to be 93%. In addition, the inhibition at 3 µM on β-secretase(BACE) [3] (3 μM test compound) turned out to be 119%.
The like results for `CCCC(CNC(=O)C1CCCCC1)N1Cc2cc(Oc3ccccc3)ccc2N=C1N` (stereo not drawn) [Compound 343] were, in that order, 0.041 µM, 0.065 µM, 81%, 101% and 118%.
For `NC1=Nc2ccc(Oc3ccccc3)cc2CN1C(CCNC(=O)C1CCCCC1)C1CCCCC1` (stereo not drawn) [Compound 391] the same measures were 0.054 µM, 0.1 µM, 35%, 93% and 115%.
For `NC1=Nc2ccc(Oc3ccccc3)cc2CN1C(CCNC(=O)C1CCCC1)C1CCCCC1` (stereo not drawn) [Compound 392], the IC50 on β-secretase(BACE) [1] was 0.093 µM. Further, the Ki on β-secretase(BACE) [2] was 0.16 µM. On β-secretase(BACE) [3], the inhibition at 0.3 µM is 75% and the inhibition at 1 µM was found to be 116%. In addition, the inhibition at 3 µM at β-secretase(BACE) [3] (3 μM test compound) is 120%.
The like results for `NC1=Nc2ccc(Oc3ccccc3)cc2CN1C(CCNC(=O)CC1CCCC1)C1CCCCC1` (stereo not drawn) [Compound 393] were, in that order, 0.15 µM, 0.29 µM, under 30%, 52% and 113%.

The values are drawn from patent publication US8383637B2, “2-amino-quinazoline derivatives useful as inhibitors of β-secretase (BACE)” (Jansssen Pharmaceutica N.V., priority 2004, dated 2013).
